Data on 10 compounds can be found in ChEMBL document CHEMBL1201862, “PubChem BioAssay data set” (2004).

Test systems include SN12C; Malme-3M; SK-OV-3; HOP-92; U-251; OVCAR-4; OVCAR-3; SNB-75; RPMI-8226; HL-60; NCI-H226; SNB-19; NCI-H460; UACC-257; TK-10; DU-145; Hs-578T; MDA-N.
Common to all, as to experiment: growth of human tumour cells (NCI), 48 h

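Exposure lasted 48 hours, with cells grown in 96-well plates and compounds tested at five concentrations. Here, GI50 denotes the concentration required for 50% inhibition of growth.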 Calls of active or inactive are those of the source. Cut-off read from the data, not from the text of the source: active = GI50 up to about 1.1 µM and inactive = higher. A value given as a limit tells only on which side of the number the result lay.

As to `c1ccc(OCc2nnc3n2N=C(c2ccccc2)CS3)cc1`, the GI50 in the assay on SN12C, with Malme-3M, with SK-OV-3, in the assay with HOP-92, with U-251 and with OVCAR-4 was > 100 µM (inactive) each time. Further, the GI50 with OVCAR-3 was > 100 µM (inactive); in the assay with SNB-75, 33 µM (inactive); in the assay with RPMI-8226, > 100 µM (inactive); in the assay with HL-60, > 100 µM (inactive); with NCI-H226, > 100 µM (inactive); with SNB-19 it was > 100 µM (inactive). The GI50 with NCI-H460, in the assay on UACC-257 and in the assay on TK-10 was > 100 µM (inactive) in each case.
As for `Cc1c(C2Cc3ccccc3N2C(=O)/C=C\C(=O)O)c2ccccc2n1C` (stereo unspecified), the GI50 with SN12C was 19.5 µM (inactive); with Malme-3M it was 15.9 µM (inactive); in the assay on SK-OV-3 it was 23.4 µM (inactive); with HOP-92 it was 17.7 µM (inactive); in the assay with U-251, 20.1 µM (inactive); in the assay with OVCAR-4, 30.6 µM (inactive). Moreover, the GI50 is 17.5 µM (inactive) in the assay on OVCAR-3; 21.8 µM (inactive) in the assay with SNB-75; 18.1 µM (inactive) in the assay on HL-60; 20.2 µM (inactive) in the assay with NCI-H226; 17.4 µM (inactive) in the assay with SNB-19; > 100 µM (inactive) with NCI-H460. Besides, the GI50 is 16.2 µM (inactive) in the assay on UACC-257 and 22 µM (inactive) in the assay on TK-10.
With `COC(=O)C(C)(/N=C/c1ccccc1)c1ccccc1` (stereo unspecified), the GI50 in the assay with SN12C, with Malme-3M, with SK-OV-3, in the assay on HOP-92, in the assay on DU-145 and in the assay with U-251 was > 100 µM (inactive) each time. The GI50 in the assay with OVCAR-4, with OVCAR-3, with SNB-75, in the assay with RPMI-8226, with HL-60 and in the assay with NCI-H226 was > 100 µM (inactive) in each case. For the same compound, the GI50 in the assay on Hs-578T, in the assay with SNB-19, in the assay on MDA-N, with NCI-H460, in the assay on UACC-257 and with TK-10 was > 100 µM (inactive) each time.
Turning to `O=[N+]([O-])c1ccc2nc(/C(=N\Nc3ccccc3)C(O)c3ccc4c(c3)OCO4)c(O)nc2c1` (stereo unspecified), the GI50 is > 100 µM (inactive) with SN12C; > 100 µM (inactive) in the assay on Malme-3M; > 100 µM (inactive) in the assay on SK-OV-3; 11 µM (inactive) in the assay with HOP-92; > 100 µM (inactive) with U-251; > 100 µM (inactive) in the assay with OVCAR-4. Moreover, the GI50 in the assay on OVCAR-3 was > 100 µM (inactive); in the assay on SNB-75, 60 µM (inactive); in the assay on RPMI-8226, 86.1 µM (inactive); in the assay on HL-60, 52.1 µM (inactive); in the assay on NCI-H226, > 100 µM (inactive); with SNB-19 it was > 100 µM (inactive). Moreover, the GI50 with NCI-H460, in the assay with UACC-257 and in the assay on TK-10 was > 100 µM (inactive) throughout.
As for `CSC(SC)=C(C(=O)O)P(=O)(O)O`, the GI50 in the assay on SN12C, in the assay on Malme-3M, in the assay on SK-OV-3, in the assay on HOP-92, with DU-145 and in the assay on OVCAR-4 was > 100 µM (inactive) each time. For the same compound, the GI50 with OVCAR-3, in the assay with HL-60, in the assay on NCI-H226, in the assay with Hs-578T, in the assay with SNB-19 and with MDA-N was > 100 µM (inactive) in each case. Also, the GI50 in the assay with NCI-H460, with UACC-257 and with TK-10 was > 100 µM (inactive) each time.
On to `COc1ccc(C=C2C(C)=NN(c3cccc(Cl)c3)C23C(Cl)C(=O)N3c2nc3ccccc3s2)cc1` (stereo unspecified), for which the GI50 with SK-OV-3 was 28.6 µM (inactive); in the assay on HOP-92 it was 9.02 µM (inactive); with DU-145, 17.5 µM (inactive); in the assay on U-251 it was 14.6 µM (inactive); in the assay with OVCAR-4 it was 23.9 µM (inactive); in the assay on OVCAR-3, 19.4 µM (inactive). For the same compound, the GI50 in the assay with RPMI-8226 was 2.82 µM (inactive); in the assay on HL-60, 2.05 µM (inactive); in the assay on NCI-H226 it was 21.4 µM (inactive); in the assay on Hs-578T, 14.4 µM (inactive); in the assay with MDA-N, 19.9 µM (inactive); in the assay on NCI-H460 it was 24 µM (inactive). Also, the results for the GI50 in the assay on UACC-257 and with TK-10 were 24.9 µM (inactive) and 26.8 µM (inactive), respectively.
On to `Cc1cc(-c2cccc3ccccc23)c(C#N)c(=S)n1C1OC(CO)C(O)C(O)C1O` (stereo unspecified), for which the GI50 in the assay with SN12C is 82.8 µM (inactive); in the assay with Malme-3M it was > 100 µM (inactive); in the assay with SK-OV-3, > 100 µM (inactive); with OVCAR-4, 60.3 µM (inactive); with OVCAR-3, > 100 µM (inactive); in the assay on SNB-75, 0.0379 µM (active). Also, the GI50 with HL-60 was > 100 µM (inactive); with NCI-H226 it was 50 µM (inactive); with Hs-578T, 86.5 µM (inactive); with MDA-N, > 100 µM (inactive); with NCI-H460, > 100 µM (inactive); in the assay on UACC-257 it was > 100 µM (inactive). The GI50 with TK-10 was > 100 µM (inactive).
Take `CC1CN=C(Nc2ccc(F)cc2F)S1` (stereo unspecified): the GI50 is > 100 µM (inactive) with SN12C; > 100 µM (inactive) with Malme-3M; > 100 µM (inactive) in the assay on SK-OV-3; 15.6 µM (inactive) with HOP-92; > 100 µM (inactive) in the assay on DU-145; > 100 µM (inactive) in the assay with U-251. Besides, the GI50 was > 100 µM (inactive) in the assay on OVCAR-4; > 100 µM (inactive) in the assay with OVCAR-3; 70.3 µM (inactive) with SNB-75; > 100 µM (inactive) in the assay with RPMI-8226; > 100 µM (inactive) in the assay on HL-60; > 100 µM (inactive) in the assay with Hs-578T. Further, the GI50 with SNB-19, in the assay on MDA-N, with NCI-H460, in the assay with UACC-257 and with TK-10 was > 100 µM (inactive) throughout.
In the case of `CC(C)CCS(=O)(=O)OCCCCOS(=O)(=O)CCC(C)C`, the GI50 was > 100 µM (inactive) with SN12C; > 100 µM (inactive) in the assay on Malme-3M; > 100 µM (inactive) in the assay with SK-OV-3; > 100 µM (inactive) in the assay with U-251; 16.4 µM (inactive) in the assay on OVCAR-3; > 100 µM (inactive) in the assay on SNB-75. Besides, the GI50 in the assay with RPMI-8226, in the assay on HL-60, in the assay with NCI-H226, with SNB-19, in the assay with NCI-H460 and with UACC-257 was > 100 µM (inactive) each time. Moreover, the GI50 in the assay with TK-10 is > 100 µM (inactive).
For the compound `Fc1ccc(-c2sc(-c3ccsc3)cc2Cc2ccsc2)cc1`, the GI50 with SN12C, in the assay on Malme-3M, in the assay with SK-OV-3, with HOP-92, in the assay on DU-145 and in the assay on OVCAR-4 was > 10 µM (inactive) throughout. Further, the GI50 in the assay on SNB-75, in the assay with RPMI-8226, in the assay on HL-60, in the assay on MDA-N, with UACC-257 and with TK-10 was > 10 µM (inactive) each time.
